# Measurements reported in PubChem BioAssay AID1996.
# Conditions: buffer; pH 7.4; 200.0 µM
row,solubility kinetic [µg/mL],SMILES
1,> 39.8,Cc1cccc(C(=O)Nc2ccc3c(c2)ncn3C)c1
2,3.2,CCOc1ccc(CCNC(=O)Nc2ccccc2C)cc1OCC
3,> 50.6,COc1cccc(C(=O)Nc2cc(C)nn2-c2ccccc2)c1OC
4,> 45.8,CC(Oc1cccnc1[N+](=O)[O-])C(=O)Nc1ccc(F)cc1 (centres undefined)
5,0.4,Cc1cc(/C=C2\SC(=S)N(C)C2=O)c(C)n1-c1cccc(O)c1
6,< 0.6,Cc1sc2nc(-c3cccs3)oc(=O)c2c1C
7,> 43.1,Nc1cccc(NC(=O)CCC(=O)NCc2ccco2)c1
8,5.3,COC(OC)C1(C)C(C#N)=C(N)Oc2c1c(=O)oc1ccccc21 (centres undefined)
9,< 0.4,CCOc1ccc(NC(=O)c2ccc(-c3csc(C)n3)cc2)cc1
10,> 43.2,CCOc1ccc(NC(=O)CNC(=O)c2ccco2)cc1
11,9.8,COc1ccccc1CNC(=O)COC(=O)/C=C/c1ccc2ccccc2n1
12,43.9,CCCCN(CC)CCNC(=O)c1cc2c(=O)[nH]c3ccccc3c2n1C
13,> 54.5,Cn1cc(S(=O)(=O)NCc2ccc3c(c2)OCO3)c(C(F)(F)F)n1
14,0.6,COc1cccc(-c2nc(N)nc(SC)c2C#N)c1
15,> 33.2,Cc1cc(NC(=O)c2ccco2)sc1C
16,41.9,O=S(=O)(Nc1cccc(Oc2ccc(Cl)cc2)n1)c1ccc(F)cc1
17,8.3,CC(=O)c1ccc(N2CCc3ccccc3C2)c([N+](=O)[O-])c1
18,34.7,O=C(O)c1ccc(S(=O)(=O)NCC2CCCO2)cc1 (centres undefined)
19,> 47.9,O=[N+]([O-])c1cc(C(F)(F)F)ccc1N1CCN(CCO)CC1
20,42.3,COc1ccc2nc(C)cc(N3CCC(C(N)=O)CC3)c2c1

row,solubility kinetic [µg/mL],SMILES
1,42,CCOc1ccc(CN(C)C(=O)Cc2c[nH]c3ccccc23)cc1
2,15,N#CCCN(C(=O)CN1c2cccc3cccc(c23)S1(=O)=O)c1ccccc1
3,> 44.3,O=C(CCc1ccccc1O)NC1CCCc2ccccc21 (centres undefined)
4,21.7,CSc1ncccc1C(=O)NC1CCCCCCC1
5,> 46.3,CCN(c1cccc(C)c1)C1C(=O)c2ccccc2N1C(C)=O (centres undefined)
6,> 61.1,CC(C)N(Cc1ccccc1)C(=O)CN1C(=O)NC2(CCOc3ccccc32)C1=O (centres undefined)
7,> 36,CC(C)NC(=O)CCCn1cc([N+](=O)[O-])cn1
8,1.5,O=C(Nc1ccc(N2CCCCC2)c(S(=O)(=O)Nc2ccccc2Cl)c1)c1cccnc1
9,23.4,CC(C)N(C(=O)c1ccc(-c2ccccc2F)cc1)C(C)C
10,40.2,O=C(c1ccc(Cl)cc1[N+](=O)[O-])N1CCOCC1
11,> 40.1,CC1=C(Cl)C2=NS(=O)(=O)CCN2C=C1Cl
12,44.2,Cc1[nH]c(=O)c(S(=O)(=O)c2ccccc2)c(C)c1Cl
13,> 44.7,O=C(Nc1cccc(N2C(=O)C=CC2=O)c1)c1cccs1
14,> 34.1,CC(=O)Nc1ccccc1Oc1ccccc1
15,> 47.7,O=C(OCCCOC(=O)c1cc[n+]([O-])cc1)c1cc[n+]([O-])cc1
16,13.3,CCOc1ccc(C(=O)N2CCc3ccccc32)cc1
17,> 48.3,O=C(C1CCCCC1)N1CCC(O)(c2ccc(Cl)cc2)CC1
18,6.2,O=C(OCC(=O)c1ccc[nH]1)c1ccc(C(F)(F)F)cc1
19,33.2,COc1cccc2c(C)cc(N3CCCCCC3)nc12
20,0.8,Cc1ccc(C)c(CNC(=O)Nc2ccccc2)c1

row,solubility kinetic [µg/mL],SMILES
1,> 35.3,CNC(=O)CO/N=C/c1ccc(N(C)C)cc1
2,45.8,O=C(CN1C(=O)C(=O)N(Cc2ccco2)C1=O)NC1CCCCC1
3,> 40.6,COC(=O)[C@H](CC(C)C)NC(=O)N1CCCCC1C (some centres undefined)
4,1.9,Cc1ccc(NC(=O)c2cccnc2C(=O)Nc2ccc(C)cc2)cc1
5,3.3,Cc1cc2c(cc1S(=O)(=O)N(C)c1ccccc1)NC(=O)CO2
6,2.4,Cc1ccc(OCC(=O)Nc2ccc3c(c2)C(=O)NC3=O)cc1
7,> 45.8,Cn1ccnc1SCC(=O)Nc1ccc2c(c1)OCCO2
8,> 55.6,O=C(O)/C=C/C(=O)Nc1ccc(Oc2ncnc3cc(Cl)ccc23)nc1
9,> 45.2,CC1Cc2ccccc2N1C(=O)CN1CCC(C(N)=O)CC1 (centres undefined)
10,> 53.9,CCCN1C2CCCC1CC(NC(=O)NC13CC4CC(CC(C4)C1)C3)C2 (centres undefined)
11,1.3,CCOn1c(=O)c(-c2ccc(Br)cc2)[n+]([O-])c2ccccc21
12,12.6,CC(C(=O)Nc1ccc(S(=O)(=O)N2CCCC2)cc1)N1CCN(c2ccccc2O)CC1 (centres undefined)
13,43.4,N#Cc1ccccc1S(=O)(=O)Nc1ccc2c(c1)C(=O)OC2
14,33.3,CCN(CC)c1ccc(C=Nc2cccnc2Cl)c(O)c1
15,> 54.5,CCOC(=O)N1CCN(C(=O)COC(=O)c2ccc(N(C)C)cc2)CC1
16,8.1,CC(C)(C)C(=O)N/C(N)=N/c1nc2ccccc2o1
17,33.8,S=C(NC1CCCCC1)N1CCOCC1
18,35.9,CCc1c(C(=O)NC(C)C2CCCO2)csc1C (centres undefined)

row,SMILES,solubility kinetic [µg/mL]
1,Cc1cccc(OP(N)(=O)Oc2cccc(C)c2)c1,40.6
